Assay [1] deals with maximal electroshock seizure model (MES) in ICR mice. Briefly: Maximal electroshock seizure test (MES). Format: in vivo. Conditions: Mus musculus, ip; mice; intraperitoneal, 30 minutes before electroshock; 50 mA, 0.2 sec; read-out: ED50, protection against tonic extension caused by MES. As for the experimental part: The anti-convulsant effect was measured by the maximal electroshock seizure model (MES) in ICR mice as previously described. The procedures followed for experimentation and maintenance of the animals were approved by the animal research ethics committee of Tel Aviv University and in accordance with the Guide for the Care and Use of Laboratory Animals (1996, National Academy of Sciences, Washington D.C.). Briefly, maximal electroshock was induced in adult mice by means of two transcorneal electrodes delivering an alternative current of 50 mA at 60 Hz for 0.2 sec using rodent shocker (Hugo Sachs Electronik, type 221). […] The compounds, dissolved in 0.9% saline, were administered intraperitoneally 30 minutes before the electroshock was performed. Animals failing to show tonic hind limb extension were scored as protected and were expressed in percentage.

A further assay addresses T1, Kv 7.1 (Homo sapiens, UniProt P51787).
T1 construct: expressed in transfected cells; host or cells: Xenopus oocytes
Description: Kv channel selectivity, Xenopus oocytes: Kv7.1. Format: cell-based. Conditions: for Fold current amplitude: +30 mV, Xenopus oocytes. As for the experimental part: (§1) Voltage-clamp measurements in Xenopus oocytes were performed as previously described.
(§2) The selectivity of NH29 on other relevant Kv channels expressed in Xenopus oocytes was also studied, and the results are summarized in Table 3 below. The specificity of NH29 at 25 μM and 50 μM towards various Kv channels was tested in Xenopus oocytes, except for Kv1.2 which was checked in transfected CHO cells. The current amplitude of the various Kv channels was tested at the indicated voltages and the effect of the drugs was expressed as fold of the control amplitude measured under the same conditions in the absence of the drug. The data in Table 3 are expressed as mean±SEM of 5-7 separate experiments.

The target in another assay is T2, IKS (Homo sapiens, UniProt P51787).
T2 construct: expressed in transfected cells; host or cells: Xenopus oocytes
T2 sequence (P51787 whole entry): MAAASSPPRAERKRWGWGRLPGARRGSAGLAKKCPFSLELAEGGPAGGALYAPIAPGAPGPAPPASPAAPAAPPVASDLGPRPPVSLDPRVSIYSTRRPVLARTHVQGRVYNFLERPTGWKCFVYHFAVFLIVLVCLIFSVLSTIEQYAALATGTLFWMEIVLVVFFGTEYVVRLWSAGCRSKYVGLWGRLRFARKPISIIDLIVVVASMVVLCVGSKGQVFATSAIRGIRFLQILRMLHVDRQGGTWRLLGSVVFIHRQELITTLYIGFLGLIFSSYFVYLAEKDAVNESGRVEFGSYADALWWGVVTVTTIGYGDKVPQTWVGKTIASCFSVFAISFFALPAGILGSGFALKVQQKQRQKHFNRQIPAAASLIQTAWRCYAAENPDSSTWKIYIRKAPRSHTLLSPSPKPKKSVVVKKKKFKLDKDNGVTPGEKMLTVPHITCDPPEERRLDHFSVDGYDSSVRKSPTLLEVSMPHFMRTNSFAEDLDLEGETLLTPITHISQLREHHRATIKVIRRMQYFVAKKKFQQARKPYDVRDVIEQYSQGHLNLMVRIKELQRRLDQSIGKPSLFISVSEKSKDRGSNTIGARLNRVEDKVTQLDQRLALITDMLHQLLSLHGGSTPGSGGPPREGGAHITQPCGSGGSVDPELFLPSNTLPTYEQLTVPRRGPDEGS
Description: Kv channel selectivity, Xenopus oocytes: IKS. It counts as cell-based. The note with it: +30 mV. As for the experimental part:
as §1, §2

A further assay has as its target T3, Kv7.3 mutant A315T (Homo sapiens, UniProt O43525, A315T).
T3 construct: expressed in transfected cells
Briefly: Activation of Kv7.3 mutant A315T. Format: cell-based. The text has this:
Among the Kv7 channel family, NH29 appeared to act as an opener of Kv7.2 but not of Kv7.1 and Kv7.4.

Another assay addresses T4, KCNQ2 mutant I209L (Homo sapiens, UniProt O43526, I209L).
T4 construct: expressed in transfected cells; host or cells: CHO cells
Description: KCNQ2 S4 mutant I209L. It counts as cell-based. The note with it: NH29. The text has this:
FIGS. 12A-F present the potentiating effect of NH29, an exemplary channel opener compound according to embodiments of the present invention, on selected KCNQ2 mutants. Shown are bar diagrams comparing the potentiating effect of NH29 on native KCNQ2 and KCNQ2 mutants, wherein the mutated amino acids are located at the S1-S2 helix region (FIG. 12A) or S4 helix region (FIG. 12D) and wherein the opener effect is expressed as percent of the control current in the absence of the opener. For comparison, marked as a green line, is the observed current increase of native KCNQ2 by NH29. FIGS. 12B 12C, 12E and 12F present representative traces recorded from CHO cell transfected with the KCNQ2 mutant S122A, S121A, L206C and R201A respectively, before and after external application of 25 μM of NH29 and wherein the membrane potential was stepped from −90 mV holding potential to −40 mV for 1.5 seconds pulse duration.
Voltage-clamp recordings in CHO cells were performed, using the whole-cell configuration of the patch-clamp technique. Signals were amplified using an Axopatch 200B patch-clamp amplifier (Molecular Devices, Sunnyvale, Calif.), sampled at 2 kHz and filtered at 800 Hz via a 4-pole Bessel low pass filter. […] Series resistances (3-13 MΩ) were compensated (75-90%) and periodically monitored.

T1 sequence (P51787 whole entry): as above
T3 sequence (O43525 whole entry A315T): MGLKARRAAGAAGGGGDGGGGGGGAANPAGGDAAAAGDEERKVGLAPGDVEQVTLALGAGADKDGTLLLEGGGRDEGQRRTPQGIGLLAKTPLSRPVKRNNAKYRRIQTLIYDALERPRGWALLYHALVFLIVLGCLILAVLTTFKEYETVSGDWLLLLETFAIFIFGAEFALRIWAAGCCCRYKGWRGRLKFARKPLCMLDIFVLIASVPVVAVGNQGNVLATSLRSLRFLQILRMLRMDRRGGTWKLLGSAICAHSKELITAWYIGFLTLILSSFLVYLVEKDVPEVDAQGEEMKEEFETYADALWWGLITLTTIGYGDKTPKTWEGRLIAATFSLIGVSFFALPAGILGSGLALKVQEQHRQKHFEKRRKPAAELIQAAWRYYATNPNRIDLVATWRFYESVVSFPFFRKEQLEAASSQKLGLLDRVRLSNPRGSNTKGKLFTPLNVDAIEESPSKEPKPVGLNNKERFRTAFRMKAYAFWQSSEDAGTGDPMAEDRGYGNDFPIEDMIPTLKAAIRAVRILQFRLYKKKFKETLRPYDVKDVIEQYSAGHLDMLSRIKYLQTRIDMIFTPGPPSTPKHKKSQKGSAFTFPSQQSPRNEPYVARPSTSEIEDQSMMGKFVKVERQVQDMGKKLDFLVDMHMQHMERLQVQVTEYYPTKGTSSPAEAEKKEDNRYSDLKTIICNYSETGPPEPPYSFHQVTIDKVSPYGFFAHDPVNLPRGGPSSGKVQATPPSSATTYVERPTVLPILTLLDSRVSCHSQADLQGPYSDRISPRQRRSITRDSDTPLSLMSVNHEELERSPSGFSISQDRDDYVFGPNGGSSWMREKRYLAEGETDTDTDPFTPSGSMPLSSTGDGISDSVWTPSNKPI
T4 sequence (O43526 whole entry I209L): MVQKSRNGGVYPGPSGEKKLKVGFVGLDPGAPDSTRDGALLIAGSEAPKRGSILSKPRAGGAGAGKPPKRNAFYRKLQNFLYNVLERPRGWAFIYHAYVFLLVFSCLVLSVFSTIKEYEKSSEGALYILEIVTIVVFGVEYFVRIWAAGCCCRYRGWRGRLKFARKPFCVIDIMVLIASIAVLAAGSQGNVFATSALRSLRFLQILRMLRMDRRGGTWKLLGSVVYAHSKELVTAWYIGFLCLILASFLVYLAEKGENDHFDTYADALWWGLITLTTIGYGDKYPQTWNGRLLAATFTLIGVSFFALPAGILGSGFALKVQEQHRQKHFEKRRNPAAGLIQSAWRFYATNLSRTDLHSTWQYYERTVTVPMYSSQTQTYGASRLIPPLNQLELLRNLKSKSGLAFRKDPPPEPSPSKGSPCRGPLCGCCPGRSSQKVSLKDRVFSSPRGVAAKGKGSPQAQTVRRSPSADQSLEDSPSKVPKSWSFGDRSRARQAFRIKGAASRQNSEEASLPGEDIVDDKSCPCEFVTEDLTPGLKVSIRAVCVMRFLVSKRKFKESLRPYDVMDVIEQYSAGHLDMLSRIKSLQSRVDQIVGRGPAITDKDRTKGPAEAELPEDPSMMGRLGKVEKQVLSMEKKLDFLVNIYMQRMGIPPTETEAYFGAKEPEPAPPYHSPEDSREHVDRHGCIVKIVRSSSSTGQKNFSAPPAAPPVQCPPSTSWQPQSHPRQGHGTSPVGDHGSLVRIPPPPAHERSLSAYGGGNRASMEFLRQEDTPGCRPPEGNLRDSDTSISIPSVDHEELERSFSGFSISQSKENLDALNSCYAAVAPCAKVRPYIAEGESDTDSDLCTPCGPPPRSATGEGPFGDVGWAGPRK

Usually ED50 stands for the dose that gives a 50% effect, or the effect in half of the subjects. For the compound `O=C(Cc1cc([N+](=O)[O-])ccc1Nc1c(Cl)cccc1Cl)OCCO` [NH25], the ED50 in assay [1] was determined as 12 mg/kg.
The inhibition is the relative decrease from the control value, in per cent. As for `O=C(Cc1cc([N+](=O)[O-])cc([N+](=O)[O-])c1Nc1c(Cl)cc([N+](=O)[O-])cc1Cl)NCCO` [NH29], the Fold current amplitude on Kv 7.1 (25 μM) worked out at 0.93 ± 0.02 fold; on Kv 7.1 (50 μM), 0.72 ± 0.02 fold; on IKS (25 μM) it was 1.02 ± 0.04 fold; at IKS (50 μM), 0.97 ± 0.04 fold. For the same compound, at Kv 7.1 (50 μM, read-out: inhibition of Kv7.1 current), the inhibition at 50 µM came to 23%. The “activation of Kv7.3 mutant A315T” value at Kv7.3 mutant A315T was “could also activate Kv7.3”. In addition, the “sensitivity to the activating effect compared to wild-type Kv7.2” value on KCNQ2 mutant I209L is recorded as “significantly less sensitive”.
